Results from ChEMBL document CHEMBL6121069, “A Medicinal Chemistry Perspective on Protein Tyrosine Phosphatase Nonreceptor Type 2 in Tumor Immunology” (J Med Chem, 2025).
pEC50, pIC50, pKd, pKi: −log10 of the molar value.

Key:
[1] = target: T1, Tyrosine-protein phosphatase non-receptor type 2 (Homo sapiens, UniProt P17706)
T1 sequence (P17706 whole entry): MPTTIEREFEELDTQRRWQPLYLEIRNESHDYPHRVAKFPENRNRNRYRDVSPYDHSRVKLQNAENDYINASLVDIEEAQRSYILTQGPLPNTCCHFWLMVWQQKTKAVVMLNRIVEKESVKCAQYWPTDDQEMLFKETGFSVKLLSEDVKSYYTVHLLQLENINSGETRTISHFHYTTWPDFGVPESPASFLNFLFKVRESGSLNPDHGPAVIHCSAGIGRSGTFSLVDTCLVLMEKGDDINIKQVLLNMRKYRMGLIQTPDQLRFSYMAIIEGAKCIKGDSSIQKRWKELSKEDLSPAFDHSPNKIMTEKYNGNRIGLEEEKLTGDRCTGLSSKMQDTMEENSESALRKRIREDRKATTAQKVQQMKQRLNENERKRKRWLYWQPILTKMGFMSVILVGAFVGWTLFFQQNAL
Description: Binding affinity to PTPN2 (unknown origin) assessed as inhibition constant

[2] = target: T2, Tyrosine-protein phosphatase non-receptor type 1 (Homo sapiens, UniProt P18031)
T2 sequence (P18031 whole entry): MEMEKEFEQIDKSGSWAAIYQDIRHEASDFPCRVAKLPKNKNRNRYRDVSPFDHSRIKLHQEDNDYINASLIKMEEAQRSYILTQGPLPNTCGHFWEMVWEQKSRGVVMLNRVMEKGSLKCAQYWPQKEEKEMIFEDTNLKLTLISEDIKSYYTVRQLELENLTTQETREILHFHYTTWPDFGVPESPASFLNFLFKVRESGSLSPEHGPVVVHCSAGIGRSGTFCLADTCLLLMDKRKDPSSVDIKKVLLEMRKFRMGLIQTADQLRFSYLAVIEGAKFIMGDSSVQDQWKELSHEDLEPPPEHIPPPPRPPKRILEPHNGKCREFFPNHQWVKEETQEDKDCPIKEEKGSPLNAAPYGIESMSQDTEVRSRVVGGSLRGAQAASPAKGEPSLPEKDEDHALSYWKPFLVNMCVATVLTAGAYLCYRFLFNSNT
Description: Binding affinity to PTP1B (unknown origin) assessed as inhibition constant

[3] = target: T1, Tyrosine-protein phosphatase non-receptor type 2; remark: listed apart in the source
Description: (§1) Inhibition of wild type FLAG-tagged PTPN2 (unknown origin) extracted from Escherichia coli BL21 (DE3) by micro-plate reader assay

[4] = target: T1, Tyrosine-protein phosphatase non-receptor type 2; remark: listed apart in the source
Description: as §1

[5] = target: T2, Tyrosine-protein phosphatase non-receptor type 1; remark: listed apart in the source
Description: Inhibition of PTP1B (unknown origin)

[6] = target: T3, Protein cereblon/Tyrosine-protein phosphatase non-receptor type 2 (Homo sapiens, UniProt P17706+Q96SW2); conditions: hek293t
T3 sequence (Q96SW2 whole entry, one chain of several): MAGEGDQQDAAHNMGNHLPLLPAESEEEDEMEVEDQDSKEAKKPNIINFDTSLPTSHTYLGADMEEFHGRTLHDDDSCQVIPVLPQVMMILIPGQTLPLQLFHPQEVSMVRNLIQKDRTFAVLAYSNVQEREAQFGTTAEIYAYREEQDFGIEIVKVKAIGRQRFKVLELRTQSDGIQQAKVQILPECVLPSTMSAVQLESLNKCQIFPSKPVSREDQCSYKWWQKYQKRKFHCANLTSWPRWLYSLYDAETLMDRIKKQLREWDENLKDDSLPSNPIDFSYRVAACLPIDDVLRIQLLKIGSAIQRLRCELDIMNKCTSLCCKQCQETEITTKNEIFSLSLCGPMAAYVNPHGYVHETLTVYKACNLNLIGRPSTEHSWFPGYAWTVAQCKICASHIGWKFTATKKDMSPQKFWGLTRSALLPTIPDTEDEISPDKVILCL
Description: PROTAC activity at PTPN2/CRBN in HEK293T cells assessed as protein degradation measured for 48 hrs by Western blot analysis

[7] = target: Protein cereblon/Tyrosine-protein phosphatase non-receptor type 1 (Homo sapiens, UniProt P18031+Q96SW2); conditions: hek293t
Sequence of Protein cereblon/Tyrosine-protein phosphatase non-receptor type 1 (Q96SW2 whole entry, one chain of several): as above
Description: PROTAC activity at PTP1B/CRBN in HEK293T cells assessed as maximal protein degradation at 10 uM measured for 48 hrs by Western blot analysis relative to control

[8] = target: T1, Tyrosine-protein phosphatase non-receptor type 2; remark: listed apart in the source
Description: Inhibition of full length human recombinant PTPN2 by mobility shift assay

[9] = target: T1, Tyrosine-protein phosphatase non-receptor type 2; remark: listed apart in the source
Description: Inhibition of His-tagged PTPN2 (unknown origin) by mobility shift assay

[10] = system: B16-F10; test: cells; conditions: Mus musculus
Description: Antiproliferative activity against mouse B16-F10 cells assessed as reduction in cell growth

[11] = target: T1, Tyrosine-protein phosphatase non-receptor type 2; remark: listed apart in the source
Description: Inhibition of PTPN2 (unknown origin)

[12] = target: T1, Tyrosine-protein phosphatase non-receptor type 2; remark: listed apart in the source
Description: Inhibition of full length human recombinant PTPN2 using DiFMUP as substrate

[13] = system: B16-F10; test: cells; conditions: Mus musculus; remark: listed apart in the source
Description: Antiproliferative activity against mouse B16-F10 cells

[14] = target: T3, Protein cereblon/Tyrosine-protein phosphatase non-receptor type 2; conditions: hek293t; remark: listed apart in the source
Description: PROTAC activity at PTPN2/CRBN in HEK293T cells assessed as induction of PTPN2 degradation incubated for 24 hrs by Nan-glo HiBiT lytic assay

[15] = system: B16-F10; test: animal or person; conditions: Mus musculus, B16-F10, 360 h, read-out: TGI
[16] = target: T1, Tyrosine-protein phosphatase non-receptor type 2; remark: listed apart in the source
Description: Inhibition of PTPN2 (unknown origin) using DiFMUP as substrate incubated for 30 mins by fluorescence based analysis

[17] = target: T1, Tyrosine-protein phosphatase non-receptor type 2; remark: listed apart in the source
Description: Inhibition of PTPN2 (unknown origin) using DiFMUP as substrate pre-incubated for 15 mins and measured for 30 mins by fluorescence based analysis

[18] = target: T1, Tyrosine-protein phosphatase non-receptor type 2; remark: listed apart in the source
Description: Inhibition of PTPN2 (unknown origin) using pNPP as substrate measured for 60 mins by fluorescence based analysis

[19] = target: T2, Tyrosine-protein phosphatase non-receptor type 1; remark: listed apart in the source
Description: Binding affinity to PTP1B (unknown origin) using pNPP as substrate incubated for 60 mins by fluorescence based analysis

[20] = target: T1, Tyrosine-protein phosphatase non-receptor type 2; remark: listed apart in the source
Description: Inhibition of full length human recombinant PTPN2 (1 to 387 residues)

[21] = system: B16-F10; test: cells; conditions: Mus musculus; remark: listed apart in the source
Description: Antiproliferative activity against mouse B16-F10 cells assessed as inhibition of cell growth

[22] = target: T2, Tyrosine-protein phosphatase non-receptor type 1; remark: listed apart in the source
Description: Inhibition of C-terminal recombinant PTP1B (1 to 405 residues) (unknown origin) using pNPP as substrate incubated for 30 mins by fluorescence based analysis

[23] = target: T1, Tyrosine-protein phosphatase non-receptor type 2; remark: listed apart in the source
Description: Inhibition of human PTPN2 using DiFMUP as substrate by fluorescence based analysis

[24] = target: T2, Tyrosine-protein phosphatase non-receptor type 1; remark: listed apart in the source
Description: Inhibition of PTP1B (unknown origin) using para-nitrophenol phosphate substrate incubated for 30 mins by fluorescence based analysis

[25] = target: T2, Tyrosine-protein phosphatase non-receptor type 1; remark: listed apart in the source
Description: Inhibition of full length His-tagged PTP1B (unknown origin) by mobility shift assay

[26] = target: T1, Tyrosine-protein phosphatase non-receptor type 2; remark: listed apart in the source
Description: Inhibition of PTPN2 (unknown origin) by mobility shift assay

[27] = target: T2, Tyrosine-protein phosphatase non-receptor type 1; remark: listed apart in the source
Description: Inhibition of PTP1B (unknown origin) by mobility shift assay

[28] = target: T1, Tyrosine-protein phosphatase non-receptor type 2; remark: listed apart in the source
Description: Binding affinity to PTPN2 (unknown origin) assessed as dissociation constant by SPR assay

[29] = cells; conditions: Homo sapiens, B16
Description: Inhibition of PTPN2/PTPN1 (unknown origin) in mouse B16 cells assessed as inhibition of IFNgamma-mediated STAT1 phosphorylation

O=C(O)COc1c(C(=O)O)sc(-c2cccc(N(C(=O)c3ccccc3)C3CCCCC3)c2)c1Br
pKi [1]: 7.49 | pKi [2]: 7.80

O=C1/C(=N\Nc2ccc(S(=O)(=O)O)cc2)C(c2ccc([N+](=O)[O-])cc2)=NN1c1ccccc1
pIC50 [3]: 5.42

CC(C)(C)C(=O)Nc1ccc2c(c1)C(=O)C(=O)c1ccccc1-2
pIC50 [4]: 6.02

Cc1c(O[C@@H]2O[C@H](CO[C@@H]3OC[C@@H](O)[C@H](O)[C@H]3O)[C@@H](O)[C@H](O)[C@H]2O)cc2c(c1O)C(=O)c1ccc(O)c(O)c1C2=O
pIC50 [5]: 4.11

Cc1ncsc1-c1ccc([C@H](C)NC(=O)[C@@H]2C[C@@H](O)CN2C(=O)[C@@H](NC(=O)CCCCCCNC(=O)Cn2cc(-c3ccc4cc(O)c(N5CC(=O)NS5(=O)=O)c(F)c4c3)cn2)C(C)(C)C)cc1
DC50 [6]: 94 nM | DC50 [7]: 142 nM

Cc1ncsc1-c1ccc([C@H](C)NC(=O)[C@@H]2C[C@@H](O)CN2C(=O)[C@@H](NC(=O)CCCCCCCCCCNC(=O)Cn2cc(-c3ccc4cc(O)c(N5CC(=O)NS5(=O)=O)c(F)c4c3)cn2)C(C)(C)C)cc1
DC50 [6]: 571 nM | DC50 [7]: 2000 nM

Cc1ncsc1-c1ccc([C@H](C)NC(=O)[C@@H]2C[C@@H](O)CN2C(=O)[C@@H](NC(=O)CCCCCNC(=O)Cn2cc(-c3ccc4cc(O)c(N5CC(=O)NS5(=O)=O)c(F)c4c3)cn2)C(C)(C)C)cc1
DC50 [6]: 217 nM | DC50 [7]: 13100 nM

Cc1ncsc1-c1ccc([C@H](C)NC(=O)[C@@H]2C[C@@H](O)CN2C(=O)[C@@H](NC(=O)CCCCCCCNC(=O)Cn2cc(-c3ccc4cc(O)c(N5CC(=O)NS5(=O)=O)c(F)c4c3)cn2)C(C)(C)C)cc1
DC50 [6]: 77 nM | DC50 [7]: 758 nM

O=C1CN(c2c(O)cc3c(c2F)C[C@H](NCCCC(F)F)CS3)S(=O)(=O)N1
pIC50 [8]: 8.59

CC(C)(O)CCOc1ccc2cc(O)c(N3CC(=O)NS3(=O)=O)c(F)c2c1
pIC50 [9]: 9.22 | pIC50 [10]: 5.24

O=C1CN(c2c(O)cc3ccccc3c2F)S(=O)(=O)N1
pIC50 [5]: 8.08 | pIC50 [11]: 7.94

Cc1cnnc(NCc2cc(O)c(N3CC(=O)NS3(=O)=O)c(F)c2)c1
pIC50 [12]: 8.40 | pIC50 [13]: 6.39

[2H]ON1C(=O)c2cccc3c([N+](=O)[O-])ccc(c23)C1=O
pIC50 [5]: 3.95 | pIC50 [3]: 3.70

O=c1c2ccccc2nnn1O
pIC50 [5]: 3.33 | pIC50 [3]: 3.43

CC1(C)C[C@@H](Nc2cccc(-c3sc(C(=O)O)c(OCC(=O)O)c3Cl)c2)CCN1S(=O)(=O)Cc1cccc(NC(=O)N2CCC(c3ccc4c5c(cccc35)C(=O)N4[C@H]3CCC(=O)NC3=O)CC2)c1
DC50 [14]: 44 nM | inhibition in vivo at 10 mg/kg [15]: 98%

O=P(O)(O)C(F)(F)c1cc2sc(CO)cc2cc1Br
pIC50 [16]: 5.82

CC(C)CCN[C@@H]1COc2cc(O)c(N3CC(=O)NS3(=O)=O)c(F)c2C1
pIC50 [8]: 7.80

O=C1CN(c2c(O)cc3c(c2F)C[C@H](NCCCC(F)F)CO3)S(=O)(=O)N1
pIC50 [8]: 8.05

CCN(CN=O)c1ccc(O)c(O)c1
pIC50 [3]: 5.19

O=C1CN(c2c(O)cc3c(c2F)CC(CNCCC(F)F)N3)S(=O)(=O)N1 (stereo not given)
pIC50 [8]: 7.82

O=C1CN(c2c(O)cc3c(c2F)C[C@H](NCCCC(F)F)CC3)S(=O)(=O)N1
pIC50 [11]: > 9.00 | pIC50 [8]: > 10.00 | pIC50 [13]: > 7.30

CCc1ccc(C(=O)NCCCC[C@H](NC(=O)[C@H](Cc2ccc(C(F)(F)P(=O)(O)O)cc2)NC(=O)[C@@H](CC(=O)COC2CC(C)CCC2C(C)C)Cc2ccccc2)C(N)=O)cc1 (stereo not given in full)
pKi [1]: 8.37 | pIC50 [17]: 8.04 | pKi [2]: 7.47 | pIC50 [18]: 8.04 | pKi [19]: 7.47

Cc1cccc(NCc2cc(F)c(N3CC(=O)NS3(=O)=O)c3[nH]ncc23)n1
pIC50 [12]: 6.70 | pIC50 [13]: < 4.82

CCCC1CCN(C2CCN(Cc3cc(O)c(N4CC(=O)NS4(=O)=O)c(F)c3)C2)C1 (stereo not given)
pIC50 [20]: 7.19 | pIC50 [21]: 4.71

C=C(C)[C@@H]1CC[C@@H](C)[C@@H]2CCC(C)=C[C@@H]21
pIC50 [5]: 4.57 | pIC50 [22]: 5.11

C=C(C)C#COc1cc(C(N)=O)cc2c(Br)c(C(F)(F)P(=O)(O)O)sc12
pIC50 [23]: 7.86 | pIC50 [24]: 6.88

CC(C)C[C@@H]1NC(=O)[C@H](Cc2ccc(OC(F)(C(=O)O)C(=O)O)cc2)NC(=O)[C@H](CCC(=O)O)NC(=O)[C@H](CC(=O)O)NC(=O)[C@H](C)NC(=O)[C@H](CC(=O)O)NC(=O)SC[C@H](C(N)=O)NC1=O
pKi [2]: 6.77

CC(C)CCNc1ccc2cc(O)c(N3CC(=O)NS3(=O)=O)c(F)c2c1
pIC50 [9]: 9.00 | pIC50 [25]: > 9.00

NC(=O)c1cc2cc(Br)c(C(F)(F)P(=O)(O)O)cc2s1
pIC50 [16]: 6.55

CC(C)CCN[C@H]1CCc2cc(O)c(N3CC(=O)NS3(=O)=O)c(F)c2C1
pIC50 [26]: 8.00 | pIC50 [27]: 8.00 | pIC50 [13]: 6.00

Cn1c(=O)n(C2CCC(=O)NC2=O)c2ccc(C3CCN(C(=O)Nc4cccc(CS(=O)(=O)N5CC[C@H](Nc6cccc(-c7sc(C(=O)O)c(OCC(=O)O)c7Cl)c6)CC5(C)C)c4)CC3)cc21 (stereo not given in full)
pKd [28]: 7.28 | DC50 [14]: 44 nM

CC(C)CC1CCN(C2CCN(Cc3cc(O)c(N4CC(=O)NS4(=O)=O)c(F)c3)C2)C1 (stereo not given)
pIC50 [20]: 7.18 | pIC50 [21]: 5.07

O=C1CN(c2c(O)cc(CNc3ncc[nH]3)cc2F)S(=O)(=O)N1
pIC50 [12]: 8.00 | pIC50 [13]: 6.80

Cn1ccnc1NCc1cc(O)c(N2CC(=O)NS2(=O)=O)c(F)c1
pIC50 [12]: 8.22 | pIC50 [13]: 6.74

CC(C)CCN[C@@H]1CSc2cc(O)c(N3CC(=O)NS3(=O)=O)c(F)c2C1
pIC50 [8]: 8.87

CC(C)CCOc1ccc2cc(O)c(N3CC(=O)NS3(=O)=O)c(F)c2c1
pIC50 [9]: 9.24 | pIC50 [25]: 9.20

CC(C)CCN[C@@H]1CCc2cc(O)c(N3CC(=O)NS3(=O)=O)c(F)c2C1 [OSUNPROTAFIB]
pIC50 [26]: 8.55 | pIC50 [13]: 7.19 | pEC50 [29]: 6.74

COc1ccc2cc(O)c(N3CC(=O)NS3(=O)=O)c(F)c2c1 [TEGEPROTAFIB]
pIC50 [9]: 9.00 | pIC50 [25]: 9.00
